Series [1] can be described thus: Body weight change in NCI-H226 xenograft study. Type of series: in vivo, BALB/c Nude mice. Particulars: QD, oral, day 21 compared to day 1. Here is the method: (§1) Example D: In Vivo Pharmacodynamic and Efficacy Study
(§2) The objective of the research is to evaluate the in vivo anti-tumor efficacy of Example 58b, 64, 75a in human lung cancer NCI-H226 xenograft model in BALB/c Nude mice. (Jiangsu GemPharmatech Co., Ltd, female, 6-9 weeks)
(§3) The NCI-H226 cancer cells was maintained in vitro with RPMI1640 medium supplemented with 10% fetal bovine serum at 37° C. in an atmosphere of 5% CO2 in the air. The cells in exponential growth phase will be harvested and quantitated by cell counter before tumor inoculation. Each mouse was inoculated subcutaneously it the right front flank region with NCI-H226 tumor cells (lx 107) in 0.2 ml of PBS mixed with Matrigel (1:1) for tumor development. Animals were randomized when the average tumor volume reached 150-200 mm^3. The test article was administered to the mice orally once a day from the day of grouping, total 21 days (QD×21 Days). Body weight change of animals was monitored regularly as an indicator of drug safety. The major endpoint was to see if the tumor growth could be delayed or mice could be cured. Tumor sizes were measured two times per week in two dimensions using a caliper, and the volume were expressed in mm^3 using the formula: V=0.5a×b^2 where a and b are the long and short diameters of the tumor, respectively.
(§4) The tumor volume were then used for the calculations of TGI. TGI is calculated for each group using the formula: TGI (%)=[1−(Ti−T0)/(Ci−C0)]×100; Ti is the average tumor volume of a treatment group on a given day, T0 is the average tumor volume of the treatment group on the first day of treatment, Ci is the average tumor volume of the vehicle control group on the same day with Ti, and C0 is the average tumor volume of the vehicle group on the first day of treatment. To compare tumor volumes of different groups at a pre-specified day, Bartlett's test was used to check the assumption of homogeneity of variance across all groups.

The next series addresses TEAD2 (Homo sapiens, UniProt Q15562). Briefly: Thermal shift assay TEAD2. Type of series: binding. An outline of the steps: (§5)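 Protein melt reactions contained TEAD1 (0.2 mg/ml final) or TEAD2 (0.08 mg/ml final) plus compound at 1 or 10 μM in 0.1% DMSO. Thermal unfolding was followed by dye fluorescence on a qPCR instrument.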
The target in the next series is TEAD3 (Homo sapiens, UniProt Q99594). Kind of series: Thermal shift assay TEAD3. Type of series: binding. A digest of the protocol:
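Compounds at 1 or 10 μM (0.1% DMSO, PBS dilution) mixed with 0.1 mg/ml final TEAD3 and thermal shift dye, then run through a qPCR melt to follow protein unfolding.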

The test system of another series is NCI-H226 cells. Kind of series: Cell growth assay (CellTiter-Glo). The series is classed as cell-based, human. The conditions noted are these: Homo sapiens, NCI-H226, 168 h, 7 days treatment, CellTiter-Glo luminescence, read-out: H226 CTG IC50.
The target of another series is TEAD4 (Homo sapiens, UniProt Q15561). Briefly: Thermal shift assay TEAD4. Type of series: binding. A digest of the protocol: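 Compounds tested at 1 and 10 μM (0.1% DMSO, PBS) against TEAD4 protein at 0.1 mg/ml final. Melting followed by thermal shift dye fluorescence during a qPCR instrument ramp.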
Series [2] concerns human lung cancer NCI-H226 xenograft. Kind of series: In vivo anti-tumor efficacy, NCI-H226 xenograft model (TGI). On the set-up: species or system BALB/c Nude mice. The conditions noted are these: QD, oral, tumor volume at day 21. Here is the method: as §1, §2, §3, §4
Series [3] can be described thus: Pharmacokinetic profile evaluation in mice. The series is classed as in vivo, CD-1 mice. Particulars: CD-1; mouse, oral administration at 10 mg/kg, plasma. Here is the method:
Example C: Pharmacokinetic Profile Evaluation
Three CD-1 mice of SPF. (Sino-British SIPPR/BK Lab Animal Ltd, Shanghai.) were intravenously administrated with given compounds (Formulation: 5% DMSO+10% Solutol+85% Saline) or orally gavage administrated with given compounds (Formulation: 5% DMSO+10% Solutol+85% Saline). The blood samples were taken via cephalic vein at timepoints 0.083 h, 0.25 h, 0.5 h, 1 h, 2 h, 4 h, 8 h, and 24 h after intravenous (iv) administration or at timepoints 0.25 h, 0.5 h, 1 h, 2 h, 4 h, 6 h, 8 h, and 24 h after oral gavage administration, 30 μL/time point. Blood samples were placed in tubes containing K2-EDTA and stored on ice until centrifuged. The blood samples were centrifuged at 6800 g for 6 minutes at 2-8° C. within 1 h after collected and stored frozen at approximately −80° C. An aliquot of 20 μL plasma samples were protein precipitated with 400 μL MeOH in which contains 100 ng/mL Verapamil (IS). The mixture was vortexed for 1 min and centrifuged at 18000 g for 10 min. Transfer 400 μL supernatant to 96 well plates. An aliquot of 5 μL supernatant was injected for LC-MS/MS analysis by LC-MS/MS-27 (TQ6500+) instrument. The analytical results were confirmed using quality control samples for intra-assay variation. The accuracy of >66.7% of the quality control samples should be between 80-120% of the known value(s). Standard set of parameters including Area Under the Curve (AUC(0-t)), maximum plasma concentration (Cmax), elimination half-life (T1/2) will be calculated using noncompartmental analysis modules in FDA certified pharmacokinetic program Phoenix WinNonlin 7.0 (Pharsight, USA).

The target of a further series is TEAD1 (Homo sapiens, UniProt P28347). Briefly: Thermal shift assay TEAD1. The series is classed as binding. A digest of the protocol: as §5

We go through 2 compounds from patent US12103915B2, “TEAD inhibitors and methods of uses thereof” (Insilico Medicine IP Limited, priority 2022, dated 2024).

SMILES strings stand for the structures.

Sequence of TEAD3 (Q99594 whole entry, species assumed): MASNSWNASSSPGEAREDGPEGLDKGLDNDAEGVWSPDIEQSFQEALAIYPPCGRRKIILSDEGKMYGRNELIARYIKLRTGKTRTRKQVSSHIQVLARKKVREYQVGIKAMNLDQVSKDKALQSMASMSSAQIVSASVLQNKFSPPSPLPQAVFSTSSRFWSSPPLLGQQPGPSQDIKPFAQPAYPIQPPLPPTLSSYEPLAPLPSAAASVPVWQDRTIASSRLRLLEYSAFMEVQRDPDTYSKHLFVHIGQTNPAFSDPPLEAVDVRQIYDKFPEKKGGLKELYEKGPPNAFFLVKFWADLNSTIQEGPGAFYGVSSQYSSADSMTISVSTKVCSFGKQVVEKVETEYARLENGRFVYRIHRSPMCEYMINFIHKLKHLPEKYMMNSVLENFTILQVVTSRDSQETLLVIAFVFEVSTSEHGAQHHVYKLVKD
Sequence of TEAD1 (P28347 whole entry, species assumed): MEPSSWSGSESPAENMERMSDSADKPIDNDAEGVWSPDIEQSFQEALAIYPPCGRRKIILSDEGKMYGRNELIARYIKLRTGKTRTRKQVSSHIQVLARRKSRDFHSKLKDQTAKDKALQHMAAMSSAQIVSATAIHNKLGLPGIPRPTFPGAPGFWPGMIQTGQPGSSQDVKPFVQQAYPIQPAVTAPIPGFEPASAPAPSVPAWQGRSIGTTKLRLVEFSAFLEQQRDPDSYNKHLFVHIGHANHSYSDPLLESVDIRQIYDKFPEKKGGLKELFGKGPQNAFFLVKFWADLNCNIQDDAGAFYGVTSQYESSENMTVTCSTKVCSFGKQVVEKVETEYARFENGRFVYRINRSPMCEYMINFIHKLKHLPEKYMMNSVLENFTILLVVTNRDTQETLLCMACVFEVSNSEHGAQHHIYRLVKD
Sequence of TEAD4 (Q15561 whole entry, species assumed): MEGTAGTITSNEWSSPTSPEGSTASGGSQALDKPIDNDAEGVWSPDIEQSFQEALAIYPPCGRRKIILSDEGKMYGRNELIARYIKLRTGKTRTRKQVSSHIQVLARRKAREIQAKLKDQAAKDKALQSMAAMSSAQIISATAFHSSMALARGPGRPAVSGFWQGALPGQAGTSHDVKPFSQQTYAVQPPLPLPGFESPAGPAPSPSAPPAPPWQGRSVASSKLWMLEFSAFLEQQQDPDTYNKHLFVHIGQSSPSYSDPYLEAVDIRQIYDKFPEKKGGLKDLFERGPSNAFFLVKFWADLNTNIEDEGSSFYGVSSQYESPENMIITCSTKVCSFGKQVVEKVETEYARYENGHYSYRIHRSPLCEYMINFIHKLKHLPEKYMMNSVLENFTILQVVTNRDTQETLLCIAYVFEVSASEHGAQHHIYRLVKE
Sequence of TEAD2 (Q15562 whole entry, species assumed): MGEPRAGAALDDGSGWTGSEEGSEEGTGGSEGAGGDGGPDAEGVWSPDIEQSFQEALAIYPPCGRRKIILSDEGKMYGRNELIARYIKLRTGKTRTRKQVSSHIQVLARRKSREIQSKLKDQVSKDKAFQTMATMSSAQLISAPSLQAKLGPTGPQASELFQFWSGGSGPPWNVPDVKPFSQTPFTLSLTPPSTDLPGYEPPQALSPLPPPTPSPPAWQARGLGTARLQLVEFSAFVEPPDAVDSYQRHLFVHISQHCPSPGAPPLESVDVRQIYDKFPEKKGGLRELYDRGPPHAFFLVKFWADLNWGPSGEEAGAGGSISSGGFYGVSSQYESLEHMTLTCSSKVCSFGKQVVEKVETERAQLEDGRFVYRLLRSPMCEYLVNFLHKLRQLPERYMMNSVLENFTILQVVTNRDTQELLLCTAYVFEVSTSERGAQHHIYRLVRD

For `Cn1cc2cc(Oc3ccc(C(F)(F)F)cc3)cc([C@@H]3C[C@H]3C(=O)N3CC[C@H](O)[C@@H](O)C3)c2n1` (single isomer, unassigned) [Example 75a], the Body weight change entry is “+6.7%” in series [1] (3 mg/kg), “+3.0%” in series [1] (10 mg/kg), “+4.0%” in series [1] (30 mg/kg) and “+1.5%” in series [1] (60 mg/kg). Also, at TEAD2, the “TEAD2 ΔTm” value was 12.2 °C. Also, the “TEAD3 ΔTm” value on TEAD3 was 10.0 °C. Further, the 50% inhibitory concentration (IC50) in the series with NCI-H226 cells is less than 100 nM. Also, the “TEAD4 ΔTm” value at TEAD4 was determined as 11.3 °C. In addition, the TGI in series [2] (3 mg/kg) was found to be 90%; in series [2] (10 mg/kg) it was 119%; in series [2] (30 mg/kg), 150%; in series [2] (60 mg/kg), 149%. Moreover, the AUC(0-t) in series [3] stood at 10700 ng·h/mL. Also, the maximum concentration (Cmax) in series [3] was found to be 1650 ng/mL. In series [3], this compound showed a half-life of 2.3 h. Also, the “TEAD1 ΔTm” value at TEAD1 turned out to be 9.0 °C.
With `Cn1cc2cc(Oc3ccc(C(F)(F)F)cc3)cc([C@H]3C[C@@H]3C(=O)N3CC(O)C3)c2n1` (single isomer, unassigned) [Example 58b], the Body weight change result in series [1] (1 mg/kg) is reported as “+8.2%”; in series [1] (3 mg/kg), “+4.0%”; in series [1] (10 mg/kg) it was “+1.6%”; in series [1] (30 mg/kg) it was “+2.9%”. The “TEAD2 ΔTm” value on TEAD2 was 12.9 °C. At TEAD3, the “TEAD3 ΔTm” value stood at 10.9 °C. In the series with NCI-H226 cells, the IC50 was less than 100 nM. Besides, the “TEAD4 ΔTm” value at TEAD4 is 11.3 °C. For the same compound, the TGI came to 95% in series [2] (1 mg/kg), 103% in series [2] (3 mg/kg), 128% in series [2] (10 mg/kg) and 145% in series [2] (30 mg/kg). In addition, in series [3], the exposure AUC(0-t) was 17200 ng·h/mL. In series [3], this compound yielded a Cmax of 1710 ng/mL. Moreover, in series [3], the half-life was 3.6 h. In addition, at TEAD1, the “TEAD1 ΔTm” value came out at 9.2 °C.
